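Cells were grown in 96-well plates and exposed to each compound for 48 hours at five concentrations; endpoints were interpolated linearly between bracketing concentrations, or set to the highest concentration if not reached. The concentration for 50% growth inhibition is given as GI50. TGI: total growth inhibition.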
System: UO-31 renal
Experiment: NCI anticancer screen, dose series, 48 h

Row | SMILES | GI50 [µM] | TGI [µM]
1 | COC(=O)c1c(C)[nH]c(/C=C2\N=C(c3ccc[nH]3)C=C2OC)c1C | 0.113 | 0.28
2 | COc1cc2c3c(n(CCCCOC(=O)C(Cl)(Cl)Cl)c(=O)c2cc1OC)-c1cc2c(cc1C3=O)OCO2 | 14.1 | > 100
3 | C/C(=N\Nc1ccc(Cl)cn1)c1ccccn1 | 0.0344 | 1.86
4 | COc1cc(NS(=O)(=O)c2ccc(-c3cnc(C4CC4)o3)cc2)ccc1F | 0.581 | 24.1
5 | CC(C)CCCC(=O)CCCCCCC(=O)CCN(O)C(=O)C(N)CO (stereo not drawn) | – | 26.7
6 | Cc1ccc(NC(=O)NCCCOc2ccc(N3C(N)=NC(N)=NC3(C)C)cc2Cl)cc1S(=O)(=O)F | > 100 | > 100
7 | CC[CH2][Sn]([Cl])([Cl])[CH2]CC.Oc1ccccc1C=NCCN=Cc1ccccc1O | 5.45 | 21.5
8 | COc1ccccc1Cn1cc2c(c1-c1ccccc1)CCc1cnoc1-2 | 3.46 | 78.6
9 | COc1cc2c(c(OC)c1OC)C(=O)[C@@H]1c3ccc([N+](=O)[O-])cc3C(=O)N(CCCBr)[C@H]21 | 4.49 | 25.7
10 | C/C=C(\C)CC/C=C/CO[Si](C)(C)C(C)(C)C | – | > 100
11 | COc1cc2c3c(n(C)c(=O)c2cc1OC)-c1cc2c(cc1/C3=C\CNCCCN)OCO2 | 6.96 | > 100
12 | O=C(/C=C\n1cnc(-c2cc(C(F)(F)F)cc(C(F)(F)F)c2)n1)NNc1cnccn1 | 0.12 | 12.8
13 | CNc1nc(N)c(N=O)c(Nc2ccc(Br)cc2)n1 | – | > 100
14 | COc1ccc(-c2nnc(COc3ccc(NC(=O)Nc4ccc(Cl)c(C(F)(F)F)c4)cc3F)o2)cc1 | 2.88 | 16.6
15 | CN1C(=O)c2ccccc2NC(=O)C12O[C@@H]2c1cccc(O)c1 (stereo partly drawn) | – | > 100
16 | CCN(CC)CCCC(C)Nc1cnc(C(=O)Nc2cccc3ccc(OC)nc23)cn1 (stereo not drawn) | 1.46 | 2.82
17 | COC(=O)C12C3C4C1C1C2C3C41NC(=O)c1csc([C@@H](C[C@H](C(C)C)N(C)C(=O)[C@@H](NC(=O)[C@H]2CCCCN2C)C2CC2)OC(C)=O)n1 (stereo partly drawn) | 0.35 | > 33.3
18 | N#Cc1cccc(NC(=O)c2cc(-c3ccc(F)cc3F)ccc2O)c1 | 2.26 | 6.99
19 | CSc1nc2cc(S(=O)(=O)N3CCCCC3)ccc2s1 | – | > 100
20 | Nc1nc(-c2cccc(Cl)c2)c(-c2ccc3ncccc3n2)s1 | 10.1 | > 25
21 | CCCCN1CSC(=S)N(Cc2ccccc2)C1 | – | > 100
22 | COc1ccc(OC)c(C(=O)c2oc3ccc(Br)cc3c2N)c1 | 0.707 | > 69.3
23 | CCC(=O)c1c(C(F)(F)F)n([O-])c2ccc(C)cc2[n+]1=O | 1.48 | > 50
24 | O=C(O)[C@@H]1CCCCN1Cc1cc2cc3c(cc2c2cc(OCc4ccccc4)ccc12)OCO3 | 4.77 | 17.4

System: SNB-75 CNS
Experiment: NCI anticancer screen, dose series, 48 h

Row | SMILES | GI50 [µM] | TGI [µM]
25 | COC(=O)c1c(C)[nH]c(/C=C2\N=C(c3ccc[nH]3)C=C2OC)c1C | 0.399 | 3.24
26 | COc1cc2c3c(n(CCCCOC(=O)C(Cl)(Cl)Cl)c(=O)c2cc1OC)-c1cc2c(cc1C3=O)OCO2 | > 100 | > 100
27 | C/C(=N\Nc1ccc(Cl)cn1)c1ccccn1 | 0.208 | > 76.2
28 | COc1cc(NS(=O)(=O)c2ccc(-c3cnc(C4CC4)o3)cc2)ccc1F | 0.158 | 0.604
29 | CC(C)CCCC(=O)CCCCCCC(=O)CCN(O)C(=O)C(N)CO (stereo not drawn) | – | 31.1
30 | Cc1ccc(NC(=O)NCCCOc2ccc(N3C(N)=NC(N)=NC3(C)C)cc2Cl)cc1S(=O)(=O)F | 8.62 | 51.4
31 | CC[CH2][Sn]([Cl])([Cl])[CH2]CC.Oc1ccccc1C=NCCN=Cc1ccccc1O | 3.34 | 16.1
32 | COc1ccccc1Cn1cc2c(c1-c1ccccc1)CCc1cnoc1-2 | 2.42 | 7.34
33 | COc1cc2c(c(OC)c1OC)C(=O)[C@@H]1c3ccc([N+](=O)[O-])cc3C(=O)N(CCCBr)[C@H]21 | 9.46 | 45.1
34 | C/C=C(\C)CC/C=C/CO[Si](C)(C)C(C)(C)C | – | > 100
35 | COc1cc2c3c(n(C)c(=O)c2cc1OC)-c1cc2c(cc1/C3=C\CNCCCN)OCO2 | 0.923 | 9.47
36 | O=C(/C=C\n1cnc(-c2cc(C(F)(F)F)cc(C(F)(F)F)c2)n1)NNc1cnccn1 | 0.118 | 1.97
37 | CNc1nc(N)c(N=O)c(Nc2ccc(Br)cc2)n1 | – | > 100
38 | COc1ccc(-c2nnc(COc3ccc(NC(=O)Nc4ccc(Cl)c(C(F)(F)F)c4)cc3F)o2)cc1 | 1.48 | 8.36
39 | CN1C(=O)c2ccccc2NC(=O)C12O[C@@H]2c1cccc(O)c1 (stereo partly drawn) | – | > 100
40 | CCN(CC)CCCC(C)Nc1cnc(C(=O)Nc2cccc3ccc(OC)nc23)cn1 (stereo not drawn) | 10.6 | 22.8
41 | COC(=O)C12C3C4C1C1C2C3C41NC(=O)c1csc([C@@H](C[C@H](C(C)C)N(C)C(=O)[C@@H](NC(=O)[C@H]2CCCCN2C)C2CC2)OC(C)=O)n1 (stereo partly drawn) | 0.00595 | > 33.3
42 | N#Cc1cccc(NC(=O)c2cc(-c3ccc(F)cc3F)ccc2O)c1 | 2.08 | 8.05
43 | CSc1nc2cc(S(=O)(=O)N3CCCCC3)ccc2s1 | – | > 100
44 | Nc1nc(-c2cccc(Cl)c2)c(-c2ccc3ncccc3n2)s1 | > 25 | > 25
45 | CCCCN1CSC(=S)N(Cc2ccccc2)C1 | – | > 100
46 | COc1ccc(OC)c(C(=O)c2oc3ccc(Br)cc3c2N)c1 | 0.253 | 1.68
47 | CCC(=O)c1c(C(F)(F)F)n([O-])c2ccc(C)cc2[n+]1=O | 15.9 | > 50
48 | O=C(O)[C@@H]1CCCCN1Cc1cc2cc3c(cc2c2cc(OCc4ccccc4)ccc12)OCO3 | 2.96 | 8.91

System: OVCAR-5 ovarian
Experiment: NCI anticancer screen, dose series, 48 h

Row | SMILES | GI50 [µM] | TGI [µM]
49 | COC(=O)c1c(C)[nH]c(/C=C2\N=C(c3ccc[nH]3)C=C2OC)c1C | 1.4 | 3.9
50 | COc1cc2c3c(n(CCCCOC(=O)C(Cl)(Cl)Cl)c(=O)c2cc1OC)-c1cc2c(cc1C3=O)OCO2 | > 100 | > 100
51 | C/C(=N\Nc1ccc(Cl)cn1)c1ccccn1 | 0.225 | > 100
52 | COc1cc(NS(=O)(=O)c2ccc(-c3cnc(C4CC4)o3)cc2)ccc1F | 1.15 | 29.5
53 | CC(C)CCCC(=O)CCCCCCC(=O)CCN(O)C(=O)C(N)CO (stereo not drawn) | – | 50.6
54 | Cc1ccc(NC(=O)NCCCOc2ccc(N3C(N)=NC(N)=NC3(C)C)cc2Cl)cc1S(=O)(=O)F | 6.44 | > 100
55 | CC[CH2][Sn]([Cl])([Cl])[CH2]CC.Oc1ccccc1C=NCCN=Cc1ccccc1O | 12.9 | 26
56 | COc1ccccc1Cn1cc2c(c1-c1ccccc1)CCc1cnoc1-2 | 9.82 | > 100
57 | COc1cc2c(c(OC)c1OC)C(=O)[C@@H]1c3ccc([N+](=O)[O-])cc3C(=O)N(CCCBr)[C@H]21 | 31 | 91.9
58 | C/C=C(\C)CC/C=C/CO[Si](C)(C)C(C)(C)C | – | > 100
59 | COc1cc2c3c(n(C)c(=O)c2cc1OC)-c1cc2c(cc1/C3=C\CNCCCN)OCO2 | 1.28 | 18.9
60 | O=C(/C=C\n1cnc(-c2cc(C(F)(F)F)cc(C(F)(F)F)c2)n1)NNc1cnccn1 | 0.189 | 16.3
61 | CNc1nc(N)c(N=O)c(Nc2ccc(Br)cc2)n1 | – | > 100
62 | COc1ccc(-c2nnc(COc3ccc(NC(=O)Nc4ccc(Cl)c(C(F)(F)F)c4)cc3F)o2)cc1 | 10.9 | 71.4
63 | CN1C(=O)c2ccccc2NC(=O)C12O[C@@H]2c1cccc(O)c1 (stereo partly drawn) | – | > 100
64 | CCN(CC)CCCC(C)Nc1cnc(C(=O)Nc2cccc3ccc(OC)nc23)cn1 (stereo not drawn) | 1.81 | 3.78
65 | COC(=O)C12C3C4C1C1C2C3C41NC(=O)c1csc([C@@H](C[C@H](C(C)C)N(C)C(=O)[C@@H](NC(=O)[C@H]2CCCCN2C)C2CC2)OC(C)=O)n1 (stereo partly drawn) | 0.294 | > 33.3
66 | N#Cc1cccc(NC(=O)c2cc(-c3ccc(F)cc3F)ccc2O)c1 | 3.2 | 25.5
67 | CSc1nc2cc(S(=O)(=O)N3CCCCC3)ccc2s1 | – | > 100
68 | Nc1nc(-c2cccc(Cl)c2)c(-c2ccc3ncccc3n2)s1 | > 25 | > 25
69 | CCCCN1CSC(=S)N(Cc2ccccc2)C1 | – | > 100
70 | COc1ccc(OC)c(C(=O)c2oc3ccc(Br)cc3c2N)c1 | 1.56 | > 51.7
71 | CCC(=O)c1c(C(F)(F)F)n([O-])c2ccc(C)cc2[n+]1=O | 3.43 | 41.6
72 | O=C(O)[C@@H]1CCCCN1Cc1cc2cc3c(cc2c2cc(OCc4ccccc4)ccc12)OCO3 | 19.2 | 44

System: SF-268 CNS
Experiment: NCI anticancer screen, dose series, 48 h

Row | SMILES | GI50 [µM] | TGI [µM]
73 | COC(=O)c1c(C)[nH]c(/C=C2\N=C(c3ccc[nH]3)C=C2OC)c1C | 0.26 | > 100
74 | COc1cc2c3c(n(CCCCOC(=O)C(Cl)(Cl)Cl)c(=O)c2cc1OC)-c1cc2c(cc1C3=O)OCO2 | 30 | > 100
75 | C/C(=N\Nc1ccc(Cl)cn1)c1ccccn1 | 0.213 | > 73.2
76 | COc1cc(NS(=O)(=O)c2ccc(-c3cnc(C4CC4)o3)cc2)ccc1F | 2.65 | 30.7
77 | CC(C)CCCC(=O)CCCCCCC(=O)CCN(O)C(=O)C(N)CO (stereo not drawn) | – | 60
78 | Cc1ccc(NC(=O)NCCCOc2ccc(N3C(N)=NC(N)=NC3(C)C)cc2Cl)cc1S(=O)(=O)F | 0.916 | > 100
79 | CC[CH2][Sn]([Cl])([Cl])[CH2]CC.Oc1ccccc1C=NCCN=Cc1ccccc1O | 3.63 | 15.5
80 | COc1ccccc1Cn1cc2c(c1-c1ccccc1)CCc1cnoc1-2 | 8.34 | > 100
81 | COc1cc2c(c(OC)c1OC)C(=O)[C@@H]1c3ccc([N+](=O)[O-])cc3C(=O)N(CCCBr)[C@H]21 | 8.6 | 41.6
82 | C/C=C(\C)CC/C=C/CO[Si](C)(C)C(C)(C)C | – | > 100
83 | COc1cc2c3c(n(C)c(=O)c2cc1OC)-c1cc2c(cc1/C3=C\CNCCCN)OCO2 | 0.762 | 10.8
84 | O=C(/C=C\n1cnc(-c2cc(C(F)(F)F)cc(C(F)(F)F)c2)n1)NNc1cnccn1 | 0.0577 | 10.6
85 | CNc1nc(N)c(N=O)c(Nc2ccc(Br)cc2)n1 | – | > 100
86 | COc1ccc(-c2nnc(COc3ccc(NC(=O)Nc4ccc(Cl)c(C(F)(F)F)c4)cc3F)o2)cc1 | 6.01 | 36.1
87 | CN1C(=O)c2ccccc2NC(=O)C12O[C@@H]2c1cccc(O)c1 (stereo partly drawn) | – | > 100
88 | CCN(CC)CCCC(C)Nc1cnc(C(=O)Nc2cccc3ccc(OC)nc23)cn1 (stereo not drawn) | 11.2 | 25.8
89 | COC(=O)C12C3C4C1C1C2C3C41NC(=O)c1csc([C@@H](C[C@H](C(C)C)N(C)C(=O)[C@@H](NC(=O)[C@H]2CCCCN2C)C2CC2)OC(C)=O)n1 (stereo partly drawn) | 0.0356 | > 33.3
90 | N#Cc1cccc(NC(=O)c2cc(-c3ccc(F)cc3F)ccc2O)c1 | 3.11 | > 100
91 | CSc1nc2cc(S(=O)(=O)N3CCCCC3)ccc2s1 | – | > 100
92 | Nc1nc(-c2cccc(Cl)c2)c(-c2ccc3ncccc3n2)s1 | > 25 | > 25
93 | CCCCN1CSC(=S)N(Cc2ccccc2)C1 | – | > 100
94 | COc1ccc(OC)c(C(=O)c2oc3ccc(Br)cc3c2N)c1 | 0.725 | > 59.5
95 | CCC(=O)c1c(C(F)(F)F)n([O-])c2ccc(C)cc2[n+]1=O | > 50 | > 50
96 | O=C(O)[C@@H]1CCCCN1Cc1cc2cc3c(cc2c2cc(OCc4ccccc4)ccc12)OCO3 | 2.98 | 21.2
